Measurements published in ChEMBL document CHEMBL5576145, “Domoic Acid as a Lead for the Discovery of the First Selective Ligand for Kainate Receptor Subtype 5 (GluK5)” (J Med Chem, 2024).

Tests used:
[1] = Displacement of [3H]-Kainic acid from KA in rat synaptic membrane; assay type: subcellular, Synaptosome
Glutamate receptor 4 [2] = biological target: T1, Glutamate receptor 4 (Rattus norvegicus, UniProt P19493); experiment: Displacement of [3H]-AMPA from AMPA in rat synaptic membrane; assay type: subcellular, Synaptosome
T1 sequence (P19493 whole entry): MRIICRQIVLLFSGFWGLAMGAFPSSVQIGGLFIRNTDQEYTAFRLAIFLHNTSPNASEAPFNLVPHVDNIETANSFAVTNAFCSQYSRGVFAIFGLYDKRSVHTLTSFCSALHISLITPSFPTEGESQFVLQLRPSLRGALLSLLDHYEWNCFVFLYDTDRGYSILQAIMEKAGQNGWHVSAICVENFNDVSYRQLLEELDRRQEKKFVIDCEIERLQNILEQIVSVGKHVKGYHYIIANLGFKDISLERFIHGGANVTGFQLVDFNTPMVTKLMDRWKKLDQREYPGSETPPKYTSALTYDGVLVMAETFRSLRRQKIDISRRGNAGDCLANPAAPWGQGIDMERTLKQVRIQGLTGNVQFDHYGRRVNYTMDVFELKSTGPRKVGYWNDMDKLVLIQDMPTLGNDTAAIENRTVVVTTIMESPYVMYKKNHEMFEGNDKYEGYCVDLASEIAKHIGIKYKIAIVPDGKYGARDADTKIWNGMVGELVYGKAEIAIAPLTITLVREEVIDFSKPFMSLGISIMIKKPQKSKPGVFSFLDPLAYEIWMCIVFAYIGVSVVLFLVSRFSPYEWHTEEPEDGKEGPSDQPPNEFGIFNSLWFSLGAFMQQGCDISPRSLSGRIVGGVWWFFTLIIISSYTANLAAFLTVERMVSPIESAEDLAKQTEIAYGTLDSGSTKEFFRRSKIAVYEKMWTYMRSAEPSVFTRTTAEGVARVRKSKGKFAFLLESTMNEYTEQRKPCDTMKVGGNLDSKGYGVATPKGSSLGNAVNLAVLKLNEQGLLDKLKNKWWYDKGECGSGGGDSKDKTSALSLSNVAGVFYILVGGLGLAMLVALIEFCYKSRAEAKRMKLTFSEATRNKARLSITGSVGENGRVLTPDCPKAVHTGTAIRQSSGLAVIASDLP

[3] = biological target: Glutamate receptor 4 (Rattus norvegicus) (UniProt P19493); experiment: Displacement of [3H]-AMPA from AMPA in rat cortical synaptosomes assessed as remaining activity at 10 uM incubated for 30 mins by TopCount microplate scintillation counting method relative to control; assay type: subcellular; conditions: Cortex, Synaptosome
Sequence of Glutamate receptor 4 (Rattus norvegicus) (P19493 whole entry): as above

Glutamate NMDA receptor = experiment: Displacement of [3H]CGP39653 from NMDA receptor in rat cortical synaptosomes incubated for 60 mins by Topcount microplate scintillation counting method; assay type: subcellular, Cortex, Synaptosome
[4] = Displacement of [3H]-KA from KA in rat cortical synaptosomes incubated for 60 mins by TopCount microplate scintillation counting method; assay type: subcellular, Cortex, Synaptosome
[5] = biological target: Glutamate receptor ionotropic, kainate 3 (Rattus norvegicus) (UniProt P42264); experiment: Displacement of [3H]-KA from rat GluK3 assessed as percentage of radioligand binding at 10 uM relative to control
Sequence of Glutamate receptor ionotropic, kainate 3 (Rattus norvegicus) (P42264 whole entry): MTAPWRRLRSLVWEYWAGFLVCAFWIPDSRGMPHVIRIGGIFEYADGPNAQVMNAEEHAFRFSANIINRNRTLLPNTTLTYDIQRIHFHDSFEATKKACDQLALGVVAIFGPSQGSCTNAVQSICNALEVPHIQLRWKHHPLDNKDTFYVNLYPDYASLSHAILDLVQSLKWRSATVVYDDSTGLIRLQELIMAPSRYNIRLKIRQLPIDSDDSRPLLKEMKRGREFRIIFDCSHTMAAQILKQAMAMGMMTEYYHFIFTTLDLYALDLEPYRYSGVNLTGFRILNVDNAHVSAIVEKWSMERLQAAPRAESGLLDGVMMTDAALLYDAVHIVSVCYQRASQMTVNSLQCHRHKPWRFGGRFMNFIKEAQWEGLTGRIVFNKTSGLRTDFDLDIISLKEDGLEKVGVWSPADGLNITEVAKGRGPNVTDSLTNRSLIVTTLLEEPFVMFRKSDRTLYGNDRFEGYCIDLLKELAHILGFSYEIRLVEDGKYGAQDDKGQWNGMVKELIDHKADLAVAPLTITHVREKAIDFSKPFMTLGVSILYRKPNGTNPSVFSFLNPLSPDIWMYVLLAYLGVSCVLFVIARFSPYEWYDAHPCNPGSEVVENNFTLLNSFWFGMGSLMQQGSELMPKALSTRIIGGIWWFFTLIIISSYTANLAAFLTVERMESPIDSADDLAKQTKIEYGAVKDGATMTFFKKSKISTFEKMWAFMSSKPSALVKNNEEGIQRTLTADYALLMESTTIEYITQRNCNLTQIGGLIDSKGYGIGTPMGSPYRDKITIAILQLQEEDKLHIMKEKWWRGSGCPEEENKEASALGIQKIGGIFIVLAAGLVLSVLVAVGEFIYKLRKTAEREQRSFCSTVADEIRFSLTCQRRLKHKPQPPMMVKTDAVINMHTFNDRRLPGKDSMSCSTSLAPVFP

[6] = biological target: Glutamate receptor ionotropic, kainate 2 (Rattus norvegicus) (UniProt P42260); experiment: Displacement of [3H]-KA from rat GluK2 assessed as percentage of radioligand binding at 10 uM relative to control
Sequence of Glutamate receptor ionotropic, kainate 2 (Rattus norvegicus) (P42260 whole entry): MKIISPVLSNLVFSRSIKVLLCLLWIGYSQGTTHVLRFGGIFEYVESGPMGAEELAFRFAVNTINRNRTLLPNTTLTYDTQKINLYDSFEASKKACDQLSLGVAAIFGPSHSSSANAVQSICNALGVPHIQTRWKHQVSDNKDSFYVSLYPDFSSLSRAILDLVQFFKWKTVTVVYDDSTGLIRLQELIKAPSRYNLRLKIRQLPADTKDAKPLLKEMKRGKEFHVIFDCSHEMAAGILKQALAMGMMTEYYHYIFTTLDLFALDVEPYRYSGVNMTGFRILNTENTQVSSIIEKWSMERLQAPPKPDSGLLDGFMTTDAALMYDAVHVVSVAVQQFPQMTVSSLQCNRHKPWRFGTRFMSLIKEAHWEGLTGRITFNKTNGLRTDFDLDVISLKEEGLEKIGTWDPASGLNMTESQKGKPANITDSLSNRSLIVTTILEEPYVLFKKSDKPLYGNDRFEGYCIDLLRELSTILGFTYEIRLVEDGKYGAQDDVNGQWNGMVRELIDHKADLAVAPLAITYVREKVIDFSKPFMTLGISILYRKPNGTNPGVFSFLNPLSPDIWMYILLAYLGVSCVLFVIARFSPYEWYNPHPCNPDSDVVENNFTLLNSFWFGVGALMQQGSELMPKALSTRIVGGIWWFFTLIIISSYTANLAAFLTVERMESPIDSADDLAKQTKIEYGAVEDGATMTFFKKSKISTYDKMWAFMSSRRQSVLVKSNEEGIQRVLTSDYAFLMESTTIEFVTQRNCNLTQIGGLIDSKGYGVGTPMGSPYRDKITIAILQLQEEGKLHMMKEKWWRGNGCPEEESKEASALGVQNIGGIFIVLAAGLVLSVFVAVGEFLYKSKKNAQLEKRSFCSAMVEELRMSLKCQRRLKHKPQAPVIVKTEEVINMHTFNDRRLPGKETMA

[7] = biological target: Glutamate receptor ionotropic, kainate 1 (Rattus norvegicus) (UniProt P22756); experiment: Displacement of [3H]-NF608 from rat GluK1 assessed as percent of radioligand binding at 10 uM relative to control
Sequence of Glutamate receptor ionotropic, kainate 1 (Rattus norvegicus) (P22756 whole entry): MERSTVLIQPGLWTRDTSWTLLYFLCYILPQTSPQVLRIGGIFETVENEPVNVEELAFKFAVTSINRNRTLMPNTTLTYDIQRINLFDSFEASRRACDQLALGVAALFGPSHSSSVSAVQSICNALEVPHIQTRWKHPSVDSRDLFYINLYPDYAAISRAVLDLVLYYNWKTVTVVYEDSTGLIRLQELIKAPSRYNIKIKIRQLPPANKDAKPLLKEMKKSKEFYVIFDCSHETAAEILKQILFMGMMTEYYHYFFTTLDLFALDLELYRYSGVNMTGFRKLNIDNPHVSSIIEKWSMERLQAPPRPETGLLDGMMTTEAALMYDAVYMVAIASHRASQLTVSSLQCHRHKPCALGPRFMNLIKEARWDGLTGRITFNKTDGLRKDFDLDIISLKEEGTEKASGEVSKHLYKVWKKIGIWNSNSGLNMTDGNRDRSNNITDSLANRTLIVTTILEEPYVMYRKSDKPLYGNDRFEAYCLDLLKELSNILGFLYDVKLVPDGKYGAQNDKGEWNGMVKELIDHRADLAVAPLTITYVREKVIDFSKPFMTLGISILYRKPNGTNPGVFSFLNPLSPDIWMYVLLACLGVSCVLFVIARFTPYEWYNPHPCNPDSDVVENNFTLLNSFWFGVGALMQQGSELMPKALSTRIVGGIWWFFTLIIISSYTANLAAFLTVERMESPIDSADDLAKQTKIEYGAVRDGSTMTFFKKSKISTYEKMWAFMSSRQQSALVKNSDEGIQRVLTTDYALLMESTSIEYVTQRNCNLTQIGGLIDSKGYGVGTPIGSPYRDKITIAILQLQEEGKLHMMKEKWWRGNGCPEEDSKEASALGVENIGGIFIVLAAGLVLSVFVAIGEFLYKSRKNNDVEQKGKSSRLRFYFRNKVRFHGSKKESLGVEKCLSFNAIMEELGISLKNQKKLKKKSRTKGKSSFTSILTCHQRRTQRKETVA

[8] = biological target: T2, Glutamate receptor ionotropic, kainate 5 (Mus musculus, UniProt Q61626); experiment: Displacement of [3H]-kainate from mouse GluK5 expressed in Sf9 cell membrane incubated for 2 hrs by scintillation counting method; assay type: cell membranes
T2 sequence (Q61626 whole entry): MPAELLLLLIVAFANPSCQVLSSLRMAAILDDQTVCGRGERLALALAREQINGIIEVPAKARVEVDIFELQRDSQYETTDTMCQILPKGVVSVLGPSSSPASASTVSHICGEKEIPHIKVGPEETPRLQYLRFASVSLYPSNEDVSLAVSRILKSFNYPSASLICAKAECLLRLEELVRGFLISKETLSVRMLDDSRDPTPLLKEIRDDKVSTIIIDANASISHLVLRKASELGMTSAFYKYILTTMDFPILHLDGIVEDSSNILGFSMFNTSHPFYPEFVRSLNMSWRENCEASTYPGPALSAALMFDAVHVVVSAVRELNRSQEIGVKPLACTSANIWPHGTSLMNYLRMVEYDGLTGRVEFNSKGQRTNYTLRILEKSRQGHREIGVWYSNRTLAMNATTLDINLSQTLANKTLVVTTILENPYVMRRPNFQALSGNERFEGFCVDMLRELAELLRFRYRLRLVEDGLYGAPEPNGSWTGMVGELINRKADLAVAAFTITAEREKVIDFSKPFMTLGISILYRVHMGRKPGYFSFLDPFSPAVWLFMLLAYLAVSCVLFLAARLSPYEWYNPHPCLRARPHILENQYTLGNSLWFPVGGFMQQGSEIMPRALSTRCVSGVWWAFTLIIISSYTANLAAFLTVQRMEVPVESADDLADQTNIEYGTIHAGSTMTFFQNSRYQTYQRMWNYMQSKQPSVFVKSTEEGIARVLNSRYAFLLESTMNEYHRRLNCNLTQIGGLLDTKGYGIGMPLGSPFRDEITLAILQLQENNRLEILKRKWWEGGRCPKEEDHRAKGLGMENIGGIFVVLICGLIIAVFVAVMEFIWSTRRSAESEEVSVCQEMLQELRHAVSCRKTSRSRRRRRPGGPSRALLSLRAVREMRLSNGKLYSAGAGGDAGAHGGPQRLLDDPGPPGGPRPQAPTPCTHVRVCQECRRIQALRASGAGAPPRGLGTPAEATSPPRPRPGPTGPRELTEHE

Glutamate receptor 4 [9] = biological target: T1, Glutamate receptor 4; experiment: Displacement of [3H]-AMPA from AMPA in rat brain membrane preincubated for 15 mins followed by [3H]-AMPA addition and measured after 40 mins by scintillation counting method; assay type: cell membranes
Neuron = experiment: Agonist activity at GluK2/K5 in mouse hippocampal neurons assessed as change in holding current at 10 uM by electrophysiology; assay type: cell-based; conditions: filed as agonist
[10] = Displacement of [3H]-Kainic acid from KA in rat brain membrane preincubated for 15 mins followed by [3H]-Kainic acid addition and measured after 1 hr by scintillation counting method; assay type: cell membranes
[11] = biological target: Glutamate NMDA receptor (Rattus norvegicus) (UniProt P35439+Q00959+Q00960+Q00961+Q62645+Q8VHN2+Q9R1M7); experiment: Displacement of [3H]CGP39653 from NMDA receptor in rat cortical synaptosomes assessed as remaining activity at 10 uM incubated for 60 mins by Topcount microplate scintillation counting method relative to control; assay type: subcellular; conditions: Cortex, Synaptosome
Rattus norvegicus = species on record: Rattus norvegicus; experiment: Displacement of [3H]-KA from KA in rat cortical synaptosomes assessed as remaining activity at 10 uM incubated for 60 mins by TopCount microplate scintillation counting method relative to control; assay type: subcellular; conditions: Cortex, Synaptosome
[12] = biological target: T3, Glutamate receptor ionotropic, kainate 5 (Mus musculus) (UniProt Q61626); experiment: Displacement of [3H]-kainate from mouse GluK5 expressed in Sf9 cell membrane assessed as remaining activity at 10 uM incubated for 2 hrs by scintillation counting method relative to control; assay type: cell membranes
T3 sequence (whole entry): T2 sequence (Q61626 whole entry)

[13] = Binding affinity to KA receptor in rat synaptosomes; assay type: subcellular, Synaptosome
Glutamate receptor 4 [14] = biological target: T1, Glutamate receptor 4; experiment: Displacement of [3H]-AMPA from AMPA in rat cortical synaptosomes incubated for 30 mins by TopCount microplate scintillation counting method; assay type: subcellular, Cortex, Synaptosome
[15] = biological target: Glutamate receptor ionotropic, kainate 3 (Rattus norvegicus, UniProt P42264); experiment: Displacement of [3H]-KA from rat GluK3
Sequence of Glutamate receptor ionotropic, kainate 3 (P42264 whole entry): as the sequence (P42264 whole entry) above

[16] = biological target: Glutamate receptor ionotropic, kainate 1 (Rattus norvegicus, UniProt P22756); experiment: Displacement of [3H]-NF608 from rat GluK1
Sequence of Glutamate receptor ionotropic, kainate 1 (P22756 whole entry): as the sequence (P22756 whole entry) above

[17] = biological target: Glutamate receptor ionotropic, kainate 2 (Rattus norvegicus, UniProt P42260); experiment: Displacement of [3H]-KA from rat GluK2
Sequence of Glutamate receptor ionotropic, kainate 2 (P42260 whole entry): as the sequence (P42260 whole entry) above

| Structure (SMILES) | Activity [3] | Activity [5] | Activity [6] | Activity [7] | Ki [8] | other results |
| --- | --- | --- | --- | --- | --- | --- |
| O=C(O)C[C@@H]1[C@@H](C(=O)O)NC[C@@H]1c1ccccc1O | – | – | – | – | – | IC50 [1]: 0.058 µM; IC50 (Glutamate receptor 4 [2]): 0.13 µM |
| C/C(=C\C=C/[C@@H](C)C(=O)O)[C@H]1CN[C@H](C(=O)O)[C@H]1CC(=O)O | – | – | – | – | – | IC50 (Glutamate receptor 4 [9]): 32 µM; Activity (Neuron): 2940 pA; IC50 [10]: 1.4 µM |
| C[C@H](CCC[C@@H](C)[C@H]1CN[C@H](C(=O)O)[C@H]1CC(=O)O)C(=O)O | – | – | – | – | – | IC50 (Glutamate receptor 4 [9]): > 100 µM; IC50 [10]: 27 µM |
| NCc1cnnn1[C@H]1CN[C@H](C(=O)O)[C@H]1CC(=O)O | 100% | 81% | 79% | 95% | – | Activity (Rattus norvegicus): 76%; Activity [11]: 92%; Activity [12]: 85% |
| O=C(O)C[C@@H]1[C@@H](C(=O)O)NC[C@@H]1n1nncc1CN1CCS(=O)(=O)CC1 | – | 91% | 80% | 97% | – | Activity [12]: 94% |
| O=C(O)C[C@@H]1[C@@H](C(=O)O)NC[C@@H]1n1nncc1-c1ccc(F)cc1F | – | 90% | 73% | 96% | 5.35 µM | – |
| C=C(C)[C@H]1CN[C@H](C(=O)O)[C@H]1CC(=O)O [KAINIC ACID] | – | – | – | – | – | IC50 [1]: 0.012 µM; IC50 (Glutamate receptor 4 [2]): 1.9 µM |
| O=C(O)C[C@@H]1[C@@H](C(=O)O)NC[C@@H]1n1nncc1-c1cccc(F)c1 | – | 58% | 76% | 60% | 1.76 µM | – |
| C/C(=C/CC[C@@H](C)C(=O)O)[C@H]1CN[C@H](C(=O)O)[C@H]1CC(=O)O | – | – | – | – | – | IC50 (Glutamate receptor 4 [9]): 3.6 µM; IC50 [10]: 0.009 µM |
| O=C(O)C[C@@H]1[C@@H](C(=O)O)NC[C@@H]1n1nncc1Cc1ccccc1 | 86% | 94% | 92% | 99% | 11.1 µM | Activity (Rattus norvegicus): 79%; Activity [11]: 87% |
| Nc1nc([C@H]2CN[C@H](C(=O)O)[C@H]2CC(=O)O)cs1 | – | – | – | – | – | IC50 [13]: 0.005 µM |
| O=C(O)C[C@@H]1[C@@H](C(=O)O)NC[C@@H]1n1ccnn1 | – | – | – | – | – | Ki (Glutamate NMDA receptor): > 100 µM; IC50 (Glutamate receptor 4 [14]): 9.5 µM; Ki [15]: 0.28 µM; IC50 [4]: 1.3 µM; Ki [16]: 3.3 µM; Ki [17]: 2.6 µM |

Further lines, with some results ahead:

| Activity [3] | Activity [5] | Activity [6] | Activity [7] | Ki [8] | Structure (SMILES) | other results |
| --- | --- | --- | --- | --- | --- | --- |
| 80% | 90% | 76% | 92% | 2.15 µM | O=C(O)C[C@@H]1[C@@H](C(=O)O)NC[C@@H]1n1nncc1-c1cccc(C(F)(F)F)c1 | Ki (Glutamate NMDA receptor): 101 µM; IC50 [4]: 5.1 µM |
| 98% | 90% | 97% | 94% | 5.57 µM | O=C(O)C[C@@H]1[C@@H](C(=O)O)NC[C@@H]1n1nncc1CCc1ccccc1 | IC50 [4]: 35 µM; Activity [11]: 98% |
| 85% | 79% | 85% | 79% | – | O=C(O)C[C@@H]1[C@@H](C(=O)O)NC[C@@H]1n1nncc1C(=O)O | Activity (Rattus norvegicus): 80%; Activity [11]: 66%; Activity [12]: 89% |
| – | 93% | 102% | 97% | 3.25 µM | Nc1cccc(-c2cn([C@H]3CN[C@H](C(=O)O)[C@H]3CC(=O)O)nn2)c1 | – |
